Measurements as given in patent publication US20250144069A1, “BILOBALIDE DERIVATIVE COMPOUNDS FOR TREATING NEUROLOGICAL DISEASES AND CANCERS” (The Chinese University of Hong Kong, priority 2023, published 2025).
Like-named read-outs stand apart in the source and are kept apart here.

Assays:
[1] = Single-dose CCK-8 cell viability screening (adherent cells); assay type: cell-based, human; conditions: average of A549 and Jurkat % viability, 50 uM, 48 h; for viability at 50 µM: Homo sapiens
Experimental: (§1) In this example, the anti-cancer properties of the BB analogues described in Table 1d were evaluated. Single-dose screening approach is used for initial testing to assess the cytotoxic effect of the BB analogues (also referred to as ‘BB compounds’) on Jurkat cells (human T cell leukaemia cells) and A549 cells (human lung cancer cells).
(§2) Method for Adherent Cells (A549 Cells)
(§3) In this example, 5000 cells/100 uL were seeded in 96-well plates and incubate at 37° C.+5% CO2 overnight. Media were replaced with 100 uL of 50 uM compound per well in 6 replicates. The following controls were prepared.
(§4) Blank control: 100 uL 0.1% DMSO in media with no cells per well.
(§5) Positive control: 100 uL of 10 uM 5-flurouracil per well.
(§6) Negative control: 100 uL of 0.1% DMSO in media per well.
(§7) Each 96-well plate included 7 compounds and the complete set of controls (in 6 replicates).
(§8) Cells were incubated at 37° C.+5% CO2 for 46 hours. 10 uL of CCK8 solution was added to each well. Cells were then incubated at 37° C.+5% CO2 for 2 hours. Absorbance at 450 nm was measured using a multiplate reader.
(§9) Viability was calculated using the equation: […]
(§10) The benchmark in Table 2 was used to define the activities of each compound.

[2] = system: A549 cells; experiment: as above; assay type: cell-based, human; conditions: for viability at 50 µM: Homo sapiens, read-out: % Viability (50 uM, 48 h) A549
Experimental: as §1, §2, §3, §4, §5, §6, §7, §8, §9, §10

[3] = system: Jurkat cells; experiment: Single-dose CCK-8 cell viability screening (suspension cells); assay type: cell-based, human; conditions: for viability at 50 µM: Homo sapiens, 48 h
Experimental: as §1
Method for Suspension Cells (Jurkat Cells)
5000 cells/90 uL were seeded in 96-well plates. 10 uL of 500 uM compound (10×) was added to each well in 6 replicates. The following controls were prepared.
Blank control: 10 uL 1% DMSO in media with no cells per well.
Positive control: 10 uL of 100 uM 5-flurouracil (10×) per well.
Negative control: 10 uL of 1% DMSO in media (10×) per well.
Each 96-well plate included 7 BB analogues and the complete set of controls (in 6 replicates).
as §8, §9, §10

[4] = system: A549 cells; experiment: Dose-dependent CCK8 viability assay; assay type: cell-based, human; conditions: Homo sapiens
Experimental: In this example, dose-dependent CCK8 Viability assay was performed to determine the IC50 (the concentration of compound to achieve 50% viability) of several of the hit compounds identified from Example 2. A variety of cell lines were used: • Jurkat cells: Human leukemia • A549 cells: Human NSCLC • KP-1 cells: Mouse NSCLC with KRAS and P53 mutations • MCF-7 cells: Human breast cancer
Method for Adherent Cells (A549, MCF-7 and KP-1 Cells)
5000 cells/100 uL were seeded in 96-well plates and incubate at 37° C.+5% CO2 overnight. Media were replaced with 100 uL of compound per well in 6 replicates in a series of 2-fold dilutions. The following controls were prepared.
as §4, §5, §6
Each 96-well plate included 1 compound in 7 concentrations and a complete set of controls (in 6 replicates).
Cells were incubated at 37° C.+5% CO2 for 46 hours. 10 uL of CCK8 solution was added to each well. Cells were incubated at 37° C.+5% CO2 for 2 hours. Absorbance at 450 nm was measured using a multiplate reader.
as §9

[5] = Hydrolytic stability in buffer monitored by LC-MS/MS
[6] = A549, 48 h, A549 cells, 50 uM, 48 h, CCK-8
[7] = Jurkat, Jurkat cells, 50 uM, CCK-8, read-out: % Viability (50 uM, 48 h) Jurkat
[8] = Jurkat, read-out: % Viability (50 uM, 48 h) Jurkat

SMILES	viability at 50 µM ([1]; A549, 48 h)	viability at 50 µM [2, 6]	viability at 50 µM [3, 7]	also measured
CC(C)(C)[C@]1(O)C[C@@H]2OC(=O)C[C@@]23C(=O)O[C@@H]2N(c4ccc(Cl)c(Cl)c4)C(=O)[C@H](OC(=O)c4ccccc4)[C@]213 [P-21, (3aS,5aS,8R,8aS,9R,10aS)-9-(tert-butyl)-9-hydroxy-2,4,7-trioxo-6-(3,4-dichloro-phenyl)octahydro-4H,9H-furo [3″,2″:2′,3′]cyclopenta [1′,2′:3,4]furo [2,3-b]pyrrol-8-yl benzoate]	55%	56.5%	53.5%	IC50 ([4]; A549, 48 h): 17.9 µM
CC(C)(C)[C@]1(O)C[C@@H]2OC(=O)C[C@@]23C(=O)O[C@@H]2N(c4ccc(C(F)(F)F)cc4)C(=O)[C@H](OC(=O)c4ccccc4)[C@]213 [P-29, (3aS,5aS,8R,9R,10aS)-9-(tert-butyl)-9-hydroxy-2,4,7-trioxo-6-(4-(trifluoromethyl)phenyl)octahydro-4H,9H-furo [3″,2″:2′,3′]cyclopenta [1′,2′:3,4]furo [2,3-b]pyrrol-8-yl benzoate]	53.1%	46.7%	59.6%	IC50 ([4]; A549, 48 h): 5.84 µM
CC(C)(C)[C@]1(O)C[C@@H]2OC(=O)C[C@@]23C(=O)O[C@@H]2N(CC45CC6CC(CC(C6)C4)C5)C(=O)[C@H](OC(=O)c4ccccc4)[C@]213 [SCC363, (3aS,5aS,8R,8aS,9R,10aS)-6-(adamantan-1-ylmethyl)-9-(tert-butyl)-9-hydroxy-2,4,7-trioxooctahydro-4H,9H-furo[3″,2″:2′,3′]cyclopenta[1′,2′:3,4]furo[2,3-b]pyrrol-8-yl benzoate]				IC50 ([4]; 48 hours): 9.99 µM
CC(C)(C)[C@]1(O)C[C@@H]2OC(=O)C[C@@]23C(=O)O[C@@H]2NC(=O)[C@H](O)[C@]213 [XBB-006, (3aS,5aS,8R,8aS,9R,10aS)-9-(tert-butyl)-8,9-dihydroxytetrahydro-4H,9Hfuro[3″,2″:2′,3′]cyclopenta[1′,2′:3,4]furo[2,3-b]pyrrole-2,4,7(3H,8H)-trione]				concentration remaining (hydrolytic stability) ([5]; buffer pH 6.8, after 20 hours): about 80%; concentration remaining (hydrolytic stability) ([5]; buffer pH 7.4, within the first 10 hours): above 80%; viability at 50 µM [1]: 99.2%; viability at 50 µM ([2]; A549 cells, 50 uM, 48 h, CCK-8): 96.4%; viability at 50 µM ([3]; Jurkat cells, 50 uM, CCK-8, read-out: % Viability (50 uM, 48 h) Jurkat): 102%
CC(=O)Nc1ccc(N2C(=O)[C@H](OC(=O)c3ccccc3)[C@@]34[C@@H]2OC(=O)[C@@]32CC(=O)O[C@H]2C[C@@]4(O)C(C)(C)C)cc1 [XBB-035, (3aS,5aS,8R,8aS,9R,10aS)-6-(4-acetamidophenyl)-9-(tert-butyl)-9-hydroxy-2,4,7-trioxooctahydro-4H,9H-furo [3″,2″:2′,3′]cyclopenta [1′,2′:3,4]furo[2,3-b]pyrrol-8-yl benzoate]	76.9%	66.9%	87%	
CC(C)(C)OC(=O)Nc1ccc(N2C(=O)[C@H](OC(=O)c3ccccc3)[C@@]34[C@@H]2OC(=O)[C@@]32CC(=O)O[C@H]2C[C@@]4(O)C(C)(C)C)cc1 [XBB-036]	70.6%	52.4%	88.8%	
CC(C)(C)[C@]1(O)C[C@@H]2OC(=O)C[C@@]23C(=O)O[C@@H]2N(c4ccc(N)cc4)C(=O)[C@H](OC(=O)c4ccccc4)[C@]213 [XBB-037′]				Average (%) [1]: 104.22%; % Viability (50 uM, 48 h) A549 ([2]; A549 cells, 50 uM, 48 h, CCK-8): 110.02%; % Viability (50 uM, 48 h) Jurkat ([3]; Jurkat cells, 50 uM, CCK-8, 50 µM): 98.42%
CC(C)(C)[C@]1(O)C[C@@H]2OC(=O)C[C@@]23C(=O)O[C@@H]2N(c4ccc(N5CCOCC5)cc4)C(=O)[C@H](OC(=O)c4ccccc4)[C@]213 [XBB-038, (3aS,5aS,8R,8aS,9R,10aS)-9-(tert-butyl)-9-hydroxy-6-(4-morpholinophenyl)-2,4,7-trioxooctahydro-4H,9H-furo [3″,2″:2′,3′]cyclopenta [1′,2′:3,4]furo [2,3-b]pyrrol-8-yl benzoate]	90.1%	95.3%	84.8%	
CC(C)(C)[C@]1(O)C[C@@H]2OC(=O)C[C@@]23C(=O)O[C@@H]2N(c4ccc5c(c4)OCO5)C(=O)[C@H](OC(=O)c4ccccc4)[C@]213 [XBB-039, (3aS,5aS,8R,8aS,9R,10aS)-6-(benzo[d][1,3]dioxol-5-yl)-9-(tert-butyl)-9-hydroxy-2,4,7-trioxooctahydro-4H,9H-furo [3″,2″:2′,3′]cyclopenta [1′,2′:3,4]furo [2,3-b]pyrrol-8-yl benzoate]	74.1%	78.4%	69.7%	
CC(C)(C)[C@]1(O)C[C@@H]2OC(=O)C[C@@]23C(=O)O[C@@H]2N(c4cccnc4)C(=O)[C@H](OC(=O)c4ccccc4)[C@]213 [XBB-040, (3aS,5aS,8R,8aS,9R,10aS)-9-(tert-butyl)-9-hydroxy-2,4,7-trioxo-6-(pyridin-3-yl)octahydro-4H,9H-furo [3″,2″:2′,3′]cyclopenta [1′,2′:3,4]furo [2,3-b]pyrrol-8-yl benzoate]	99%			viability at 50 µM ([2]; A549, 48 h): 99.6%; viability at 50 µM [3, 8]: 98.4%
CC(C)(C)[C@]1(O)C[C@@H]2OC(=O)C[C@@]23C(=O)O[C@@H]2N(c4ccc(N5CCOCC5)cc4)C(=O)[C@H](O)[C@]213 [XBB-042, (3aS,5aS,8R,8aS,9R,10aS)-9-(tert-butyl)-8,9-dihydroxy-6-(4-morpholinophenyl)tetrahydro-4H,9H-furo [3″,2″:2′,3′]cyclopenta [1′,2′:3,4]furo [2,3-b]pyrrole-2,4,7(3H,8H)-trione]	96.7%			viability at 50 µM ([2]; A549, 48 h): 95.6%; viability at 50 µM [3, 8]: 97.8%
CC(C)(C)[C@]1(O)C[C@@H]2OC(=O)C[C@@]23C(=O)O[C@@H]2N(CC4CCN(C(=O)c5ccc6c(c5)OCCO6)CC4)C(=O)[C@H](OC(=O)c4ccccc4)[C@]213 [XBB-045, (3aS,5aS,8R,8aS,9R,10aS)-9-(tert-butyl)-6-((1-(2,3-dihydrobenzo[b][1,4]dioxine-6-carbonyl)piperidin-4-yl)methyl)-9-hydroxy-2,4,7-trioxooctahydro-4H,9H-furo [3″,2″:2′,3′]cyclopenta [1′,2′:3,4]furo[2,3-b]pyrrol-8-yl benzoate]	85.9%	87%	84.8%	
CC(=O)O[C@H]1C(=O)N(CCn2cc3ccccc3c2C)[C@H]2OC(=O)[C@]34CC(=O)O[C@H]3C=C(C(C)(C)C)[C@@]214 [XBB-054]	90.9%	88.8%	93%	
CC(=O)O[C@H]1C(=O)N(CC2CCN(C(=O)OC(C)(C)C)CC2)[C@H]2OC(=O)[C@]34CC(=O)O[C@H]3C=C(C(C)(C)C)[C@@]214 [XBB-060]	106%	108%	104%	
CC(C)(C)[C@]1(O)C[C@@H]2OC(=O)C[C@@]23C(=O)O[C@@H]2N(c4cccc5c4OCO5)C(=O)[C@H](OC(=O)c4ccccc4)[C@]213 [XBB-068]	97.5%	93.6%	101%	
CC(=O)O[C@H]1C(=O)NC(N)=N[C@H]2OC(=O)[C@]34CC(=O)O[C@H]3C=C(C(C)(C)C)[C@@]214 [XBB-073]	86.5%	66.5%	107%	
C=C(C)[C@@]1(C)C[C@@H]2OC(=O)C[C@@]23C(=O)O[C@@H]2N(c4ccccc4)NC(=O)[C@H](OC(C)=O)[C@]213 [XBB-075]	84%	67.4%	101%	
